Test systems include MCF7; HCT-15; U-251; HCT-116; NCI/ADR-RES; SF-268; NCI-H522; K562; SK-MEL-28; MDA-MB-435; SK-OV-3; Malme-3M; COLO 205; RXF 393; OVCAR-5; IGROV-1; OVCAR-4; NCI-H23; UO-31; M14.
Holding throughout (assay): DTP human tumour cell line panel, 48 h

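Values below derive from 48-hour exposures of cells grown in 96-well plates, with endpoints linearly interpolated between the two concentrations bracketing the appropriate inhibition level. GI50 = concentration required for 50% inhibition of growth.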 Active and inactive are the calls of the source. No stated cut-off is given here; in the data, active = GI50 up to about 1.1 µM and inactive = higher.

Broadly, the GI50 is the concentration at which growth is held to half of that of the control. With `CC(=O)OC1CCC2(C)C(=CCC3C2CCC2(C)C3CC3OC4(CCC(C)CN4)C(C)C32)C1` (stereo not given), the GI50 is > 100 µM (inactive) with MCF7; over 100 µM in the test with HCT-15; > 100 µM (inactive) in the test on U-251; > 100 µM (inactive) with HCT-116; > 100 µM (inactive) in the test on NCI/ADR-RES; > 100 µM (inactive) in the test with SF-268. For the same compound, the GI50 in the test on NCI-H522, in the test on K562, with SK-MEL-28, in the test with MDA-MB-435, in the test with SK-OV-3 and with Malme-3M was > 100 µM (inactive) each time. Further, the GI50 in the test with COLO 205, with RXF 393, with OVCAR-5, with IGROV-1, in the test on OVCAR-4 and in the test on NCI-H23 was > 100 µM (inactive) each time. Moreover, the GI50 in the test on UO-31 and in the test with M14 was > 100 µM (inactive) each time.

Consider `CC(C)(C)c1cc(C2COC(=O)COCCOCC(=O)OCCOCCO2)cc(C(C)(C)C)c1O` (stereo not given), for which the GI50 in the test with MCF7 was > 100 µM (inactive); in the test on HCT-15, 50.2 µM; in the test with U-251, 36.7 µM (inactive); with HCT-116, > 68.2 µM (inactive); in the test on NCI/ADR-RES, > 100 µM (inactive); in the test with SF-268, 34 µM (inactive). Moreover, the GI50 is > 47 µM (inactive) in the test on NCI-H522; > 100 µM (inactive) in the test on K562; 37.2 µM (inactive) in the test on SK-MEL-28; 37.3 µM (inactive) with MDA-MB-435; 32.1 µM (inactive) with SK-OV-3; > 100 µM (inactive) with Malme-3M. In addition, the GI50 is 32.5 µM (inactive) in the test on COLO 205; 23.1 µM (inactive) in the test on RXF 393; 21.7 µM (inactive) in the test with OVCAR-5; 72.8 µM (inactive) with IGROV-1; > 100 µM (inactive) in the test on OVCAR-4; 42.7 µM (inactive) in the test with NCI-H23. Besides, the GI50 is 15.6 µM (inactive) with UO-31 and 42.1 µM (inactive) in the test with M14.

`c1ccc(COc2ccc(C[P+](c3ccccc3)(c3ccccc3)c3ccccc3)cc2)cc1`: the GI50 was 0.1 µM (active) with MCF7; 2.82 µM with HCT-15; 0.102 µM (active) in the test on U-251; 0.104 µM (active) in the test with HCT-116; 13.4 µM (inactive) in the test with NCI/ADR-RES; 0.261 µM (active) in the test with SF-268. The GI50 in the test with NCI-H522 was 0.195 µM (active); in the test on K562, 0.0556 µM (active); in the test with SK-MEL-28, 0.337 µM (active); with MDA-MB-435, 0.225 µM (active); in the test with SK-OV-3 it was 0.287 µM (active); in the test with Malme-3M, 0.361 µM (active). In addition, the GI50 with COLO 205 is 0.129 µM (active); with RXF 393 it was 0.0395 µM (active); with OVCAR-5, 0.269 µM (active); with IGROV-1 it was 0.294 µM (active); with OVCAR-4 it was 0.245 µM (active); in the test on NCI-H23, 0.2 µM (active). For the same compound, the GI50 in the test with UO-31 was 2.94 µM (inactive); in the test with M14, 0.366 µM (active).

With `N#Cc1c(Cl)c2cccnc2n2c1nc1ccccc12`, the GI50 in the test with MCF7 was 2.71 µM (inactive); in the test with HCT-15, 2.04 µM; in the test on U-251, 4.28 µM (inactive); in the test with HCT-116, 1.7 µM (inactive); in the test on NCI/ADR-RES it was 2.69 µM (inactive); in the test with SF-268 it was 2.66 µM (inactive). For the same compound, the GI50 is 1.17 µM (inactive) with NCI-H522; 0.427 µM (active) in the test on K562; 3.64 µM (inactive) in the test on SK-MEL-28; 4.3 µM (inactive) in the test on MDA-MB-435; 15.5 µM (inactive) in the test with SK-OV-3; 1.84 µM (inactive) with Malme-3M. For the same compound, the GI50 in the test on COLO 205 was 1.99 µM (inactive); in the test with RXF 393, 1.42 µM (inactive); in the test on OVCAR-5, 14.2 µM (inactive); in the test with IGROV-1, 1.41 µM (inactive); with OVCAR-4, 2.66 µM (inactive); in the test on NCI-H23, 2.07 µM (inactive). Besides, the GI50 with UO-31 was 1.81 µM (inactive); in the test with M14, 3.15 µM (inactive).

Consider `O=NN(CCCl)C(=O)NCCCl` [CARMUSTINE], for which the GI50 is 68.9 µM (inactive) with MCF7; 64.6 µM with HCT-15; 52.1 µM (inactive) in the test on U-251; 73.6 µM (inactive) in the test on HCT-116; 94.6 µM (inactive) in the test with NCI/ADR-RES; 38.6 µM (inactive) with SF-268. In addition, the GI50 in the test with NCI-H522 is 42.9 µM (inactive); with K562, 45.8 µM (inactive); in the test on SK-MEL-28, 81.5 µM (inactive); with MDA-MB-435, 75.5 µM (inactive); in the test on SK-OV-3, 115 µM (inactive); in the test with Malme-3M, 81.5 µM (inactive). For the same compound, the GI50 was 72.3 µM (inactive) with COLO 205; 76.2 µM (inactive) with RXF 393; 105 µM (inactive) in the test on OVCAR-5; 70.6 µM (inactive) with IGROV-1; 87.9 µM (inactive) in the test on OVCAR-4; 88.1 µM (inactive) with NCI-H23. For the same compound, the values for the GI50 with UO-31 and in the test on M14 were 98.2 µM (inactive) and 78.7 µM (inactive), respectively.

Source of the values: ChEMBL document CHEMBL1201862, “PubChem BioAssay data set” (2004).
